Tested on: K86415-001-R-J1-PDC complex spheroids, viability
Assay: Anticancer human tumor K86415-001-R-J1-PDC patient-derived lung adenocarcinoma cell line growth inhibition [RAS]
Details: for IC50: curve of first compound; for viability, T/C: stronger effect = lower value; active means viability on the fitted dose curve at most 10% of control; inactive means the rest
Method in brief: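 Multi-cell-type spheroids: tumor cells plus HUVEC endothelial cells and mesenchymal stem cells. RAS-pathway inhibitors were combined with targeted agents, each dosed in half-log steps down from clinical Cmax, or from 10 microM when Cmax was unknown.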
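Further: spheroids exposed to agents for seven days before readout.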

CC(=O)OC12COC1CC(O)C1(C)C(=O)C(O)C3=C(C)C(OC(=O)C(O)C(NC(=O)OC(C)(C)C)c4ccccc4)CC(O)(C(OC(=O)c4ccccc4)C21)C3(C)C (centres undefined) + C#Cc1c(F)ccc2cc(O)cc(-c3ncc4c(N5CC6CCC(C5)N6)nc(OCC56CCCN5CC(F)C6)nc4c3F)c12
inactive: viability, T/C (second compound 0.0316 µM, first compound 0.0316 µM) 29.3% | viability, T/C (second compound 0.0316 µM, first compound 0.1 µM) 30.7% | viability, T/C (second compound 0.0316 µM, first compound 0.316 µM) 32.6% | viability, T/C (second compound 0.0316 µM, first compound 1 µM) 30.9% | viability, T/C (second compound 0.0316 µM, first compound 3.16 µM) 37.5% | viability, T/C (second compound 0.0316 µM, first compound 10 µM) 35.7% | viability, T/C (second compound 0.1 µM, first compound 0.0316 µM) 30.8% | viability, T/C (second compound 0.1 µM, first compound 0.1 µM) 34.4% | viability, T/C (second compound 0.1 µM, first compound 0.316 µM) 28.6% | viability, T/C (second compound 0.1 µM, first compound 1 µM) 32% | viability, T/C (second compound 0.1 µM, first compound 3.16 µM) 26.8% | viability, T/C (second compound 0.1 µM, first compound 10 µM) 37% | viability, T/C (second compound 0.316 µM, first compound 0.0316 µM) 32.2% | viability, T/C (second compound 0.316 µM, first compound 0.1 µM) 29.9% | viability, T/C (second compound 0.316 µM, first compound 0.316 µM) 27.4% | viability, T/C (second compound 0.316 µM, first compound 1 µM) 28.9% | viability, T/C (second compound 0.316 µM, first compound 3.16 µM) 29.2% | viability, T/C (second compound 0.316 µM, first compound 10 µM) 28.8% | viability, T/C (second compound 1 µM, first compound 0.0316 µM) 34.2% | viability, T/C (second compound 1 µM, first compound 0.1 µM) 33.9% | viability, T/C (second compound 1 µM, first compound 0.316 µM) 28.7% | viability, T/C (second compound 1 µM, first compound 1 µM) 32.6% | viability, T/C (second compound 1 µM, first compound 3.16 µM) 25.9% | viability, T/C (second compound 1 µM, first compound 10 µM) 26.7% | viability, T/C (second compound 3.16 µM, first compound 0.0316 µM) 23.9% | viability, T/C (second compound 3.16 µM, first compound 0.1 µM) 26.8% | viability, T/C (second compound 3.16 µM, first compound 0.316 µM) 27.1% | viability, T/C (second compound 3.16 µM, first compound 1 µM) 26.5% | viability, T/C (second compound 3.16 µM, first compound 3.16 µM) 29.4% | viability, T/C (second compound 3.16 µM, first compound 10 µM) 24.5% | viability, T/C (second compound 10 µM, first compound 0.0316 µM) 20.1% | viability, T/C (second compound 10 µM, first compound 0.1 µM) 19.1% | viability, T/C (second compound 10 µM, first compound 0.316 µM) 19.5% | viability, T/C (second compound 10 µM, first compound 1 µM) 19.3% | viability, T/C (second compound 10 µM, first compound 3.16 µM) 18.2% | viability, T/C (second compound 10 µM, first compound 10 µM) 15.3%
< 0.0316 µM: IC50 (second compound 0.0316 µM) | IC50 (second compound 0.1 µM) | IC50 (second compound 0.316 µM) | IC50 (second compound 1 µM) | IC50 (second compound 3.16 µM) | IC50 (second compound 10 µM)

CCc1c2c(nc3ccc(O)cc13)-c1cc3c(c(=O)n1C2)COC(=O)[C@]3(O)CC + C=CC(=O)N1CCN(c2nc(OCC3CCCN3C)nc3c(F)c(-c4nc(N)cc(C)c4C(F)(F)F)c(Cl)cc23)C(C)C1
inactive: viability, T/C (second compound 0.00316 µM, first compound 0.000949 µM) 19.9% | viability, T/C (second compound 0.00316 µM, first compound 0.003 µM) 18.5% | viability, T/C (second compound 0.00316 µM, first compound 0.00949 µM) 14.5% | viability, T/C (second compound 0.00316 µM, first compound 0.03 µM) 13.7% | viability, T/C (second compound 0.01 µM, first compound 0.000949 µM) 11.6% | viability, T/C (second compound 0.01 µM, first compound 0.003 µM) 10.7% | viability, T/C (second compound 0.0316 µM, first compound 0.000949 µM) 10.1% | viability, T/C (second compound 0.316 µM, first compound 0.000949 µM) 10% | viability, T/C (second compound 0.316 µM, first compound 0.003 µM) 9.61% | viability, T/C (second compound 1 µM, first compound 0.000949 µM) 9.61%
< 0.000949 µM: IC50 (second compound 0.00316 µM) | IC50 (second compound 0.01 µM) | IC50 (second compound 0.0316 µM) | IC50 (second compound 0.1 µM) | IC50 (second compound 0.316 µM) | IC50 (second compound 1 µM)
active: viability, T/C (second compound 0.00316 µM, first compound 0.0949 µM) 8.97% | viability, T/C (second compound 0.00316 µM, first compound 0.3 µM) 4.41% | viability, T/C (second compound 0.01 µM, first compound 0.00949 µM) 11.3% | viability, T/C (second compound 0.01 µM, first compound 0.03 µM) 9.32% | viability, T/C (second compound 0.01 µM, first compound 0.0949 µM) 8.86% | viability, T/C (second compound 0.01 µM, first compound 0.3 µM) 4.64% | viability, T/C (second compound 0.0316 µM, first compound 0.003 µM) 9.35% | viability, T/C (second compound 0.0316 µM, first compound 0.00949 µM) 8.29% | viability, T/C (second compound 0.0316 µM, first compound 0.03 µM) 8.73% | viability, T/C (second compound 0.0316 µM, first compound 0.0949 µM) 8.33% | viability, T/C (second compound 0.0316 µM, first compound 0.3 µM) 4.32% | viability, T/C (second compound 0.1 µM, first compound 0.000949 µM) 8.25% | viability, T/C (second compound 0.1 µM, first compound 0.003 µM) 9.14% | viability, T/C (second compound 0.1 µM, first compound 0.00949 µM) 10.9% | viability, T/C (second compound 0.1 µM, first compound 0.03 µM) 7.98% | viability, T/C (second compound 0.1 µM, first compound 0.0949 µM) 6.67% | viability, T/C (second compound 0.1 µM, first compound 0.3 µM) 3.89% | viability, T/C (second compound 0.316 µM, first compound 0.00949 µM) 9.94% | viability, T/C (second compound 0.316 µM, first compound 0.03 µM) 10.7% | viability, T/C (second compound 0.316 µM, first compound 0.0949 µM) 7.22% | viability, T/C (second compound 0.316 µM, first compound 0.3 µM) 4.36% | viability, T/C (second compound 1 µM, first compound 0.003 µM) 11% | viability, T/C (second compound 1 µM, first compound 0.00949 µM) 8.27% | viability, T/C (second compound 1 µM, first compound 0.03 µM) 8.66% | viability, T/C (second compound 1 µM, first compound 0.0949 µM) 6.75% | viability, T/C (second compound 1 µM, first compound 0.3 µM) 2.88%

Reference: PubChem BioAssay AID2060893 (Molecular Pharmacology Branch, DTP, NCI, 2025)
